Several values for one entry are separate records, joined by “and”; a condition that tells them apart may be missing. Identical values can stand only once. Like-named read-outs stand apart in the source and are kept apart here.
Tests used:
[1] = test system: porcine liver CES; assay: In vitro CES inhibition (4-NPA substrate); format: biochemical; conditions: compound 20 µM, n.a. = not active
Source text: (§1) Assessment of the esterase profile of new potential anti-AD molecules enables the estimation of both the primary pharmacological effects of the tested compounds—their inhibition of AChE and BChE—and their possible unwanted side effect—inhibition of CES, which hydrolyzes numerous ester-containing drugs. For the esterase profile evaluation, human erythrocyte AChE, equine serum BChE, and porcine liver CES were used. These sources of BChE and CES were employed because of their relatively low cost, high sequence identity to human enzymes, and the exploratory character of this work.
(§2) Chromophore absorbances were measured with a FLUOStar Optima microplate reader (BMG Labtech, Ortenberg, Germany). […] Initially, we used a single concentration of 20 µM for all compounds.

[2] = target: T1, EeAChE PAS (Electrophorus electricus, UniProt O42275); format: binding; conditions: compound 20 µM; EeAChE 7 µM; propidium iodide 8 µM
T1 construct: The enzyme was electric eel AChE (EeAChE type VI-S, lyophilized powder, Sigma-Aldrich); purchased Sigma-Aldrich type VI-S; host or cells: electric eel (tissue-derived)
Source text: This method is widely used as a screening approach to assess the potential ability of compounds to block AChE-induced β-amyloid aggregation. This is because when the compounds bind to the AChE PAS, they prevent the binding of β-amyloid, thereby inhibiting its aggregation.
The enzyme was electric eel AChE (EeAChE type VI-S, lyophilized powder, Sigma-Aldrich). We selected this source of AChE for consistency with our other reports and because of the purity, specific activity, and lower cost compared to human AChE.
Propidium iodide (final concentration 8 μM) was then added for a further 15 min incubation, and the fluorescence spectrum was taken (530 nm excitation and 600 nm emission) using a FLUOStar Optima microplate reader. The same concentration of propidium iodide in the Tris buffer was used as the blank. Triplicate determinations were recorded and the results were calculated via the following equation:% Displacement = 100 − (IFAChE+ Propidium + inhibitor/IFAChE + Propidium) × 100, where IFAChE + Propidium = fluorescence intensity of propidium iodide associated with AChE in the absence of the test compound (taken as 100%), and IFAChE + Propidium + inhibitor = fluorescence intensity of propidium iodide associated with AChE in the presence of the test compound.

[3] = target: β-amyloid (1–42) (Aβ42) (Homo sapiens, UniProt P05067); assay: Inhibition of Aβ42 self-aggregation (thioflavin T); format: biochemical; conditions: for inhibition at 100 µM: read-out: Inhibition of Aβ42 Self-Aggregation
Description: The inhibitory activity of tested hybrids against the self-aggregation of Aβ42 was determined in vitro using the thioflavin T (ThT) fluorimetric assay. According to [84], the ThT test is ideal for preliminary screening of inhibitors of Aβ42 self-aggregation, as it enables the quantitative testing of large numbers of compounds within a relatively short time.
The influence of the inhibitory effect of the test compounds toward Aβ42 self-aggregation was determined using the thioflavin T (ThT) fluorescence method with minor modifications. This assay is based on a specific interaction between the fluorescent dye thioflavin T that binds to the β-sheets of assembled amyloid fibrils leading to a significant increase in fluorescence signal. Therefore, the decrease in ThT fluorescence correlates with the ability of the studied compounds to inhibit the formation of amyloid aggregates.
One mg of lyophilized HFIP-pretreated Aβ42 from BACHEM (Bubendorf, Switzerland) was dissolved in DMSO to obtain a stable initial solution ([Aβ42] = 500 μM); then it was aliquoted and stored at −20 °C.
For the measurement of Aβ42 self-aggregation and amyloid fibril inhibition studies by the tested compounds, aliquots of 500 μM Aβ42 stock solution were diluted in 215 mM Na-phosphate buffer pH = 8.0 to a final concentration of 50 μM Aβ42. Then the samples were incubated for 24 h at 37 °C without stirring in the absence (base level of Aβ42 self-aggregation, control) or presence of the test compounds. Myricetin and propidium iodide were used as reference compounds (positive controls). All compounds were used in a concentration of 100 µM. To quantify Aβ42 fibril formation, after incubation, 5 μM ThT in 50 mM glycine-NaOH buffer pH 8.5 was added to the solutions to a final concentration of 4 μM ThT and the fluorescence was measured at 440 nm (excitation) and 485 nm (emission). Analyses were performed with a FLUOStar Optima microplate reader (LabTech, Ortenberg, Germany). The blanks consisted of 215 mM Na-phosphate buffer, pH = 8.0, 20% (v/v) DMSO or test compounds, respectively. Each assay was run in triplicate.

[4] = ABTS radical cation scavenging assay; design: key to ABTS^•+ Scavenging Activity, TEAC: TEAC: ratio of compound slope to Trolox slope (Trolox equivalents); conditions: 1 h incubation; for IC50: 50% reduction of ABTS radical cation; for ABTS^•+ Scavenging Activity, TEAC: Trolox equivalent, n.a. = not active
Description: In the ABTS assay, the dark-green ABTS cation-radical (ABTS^•+) is quenched by interaction with AOs. The consequent decrease in absorbance is followed spectrophotometrically per the previously described method.
Radical scavenging activity of the compounds was assessed using the ABTS radical cation (ABTS^•+) decolorization assay with some modifications. ABTS (2,2′-azinobis-(3-ethylbenzothiazoline-6-sulfonic acid) was purchased from Tokyo Chemical Industry Co., Ltd. (Tokyo, Japan); potassium persulfate (dipotassium peroxodisulfate), Trolox (6-hydroxy-2,5,7,8-tetramethylchroman-2-carboxylic acid), and HPLC-grade ethanol and DMSO were obtained from Sigma-Aldrich (Saint Louis, MO, USA). Aqueous solutions were prepared using deionized water. All tested compounds were dissolved in DMSO.
The solution of cation radical ABTS^•+ was produced by incubation of an aqueous solution of 7 mM ABTS and 2.45 mM potassium persulfate solution in equal quantities for 12–16 h at room temperature in the dark. Radical scavenging capacity of the compounds was analyzed by mixing 10 μL of compound with 240 μL of ABTS^•+ working solution in ethanol (100 μM final concentration). The reaction was monitored for an hour at 30 °C with an interval of 10 min. Data are given for 1 h of incubation of compounds with ABTS^•+. The reduction in absorbance was measured spectrophotometrically at 734 nm using an xMark microplate UV/VIS spectrophotometer (Bio-Rad, Hercules, CA, USA). Ethanol blanks were run in each assay. Values were obtained from five replicates of each sample and three independent experiments.
The standard AO Trolox was used as a reference compound. AO capacity as Trolox equivalent (TEAC) values was determined as the ratio between the slopes obtained from the linear correlation of the ABTS radical absorbance with the concentrations of tested compounds and Trolox. Ascorbic acid was used as a positive control. […]. The compounds were tested in the concentration range of 0.5–100 µM.

[5] = FRAP assay; conditions: Trolox equivalents; 60 min, 37 °C; n.a. = not active
Description: The Ferric Reducing Antioxidant Power (FRAP) test involves reduction of the ferric 2,4,6-tripyridyl-s-triazine complex [Fe(TPTZ)2]^3+ to an intense-blue ferrous complex [Fe(TPTZ)2]^2+ [92], as previously reported. Results are given as Trolox Equivalents (TE).
The FRAP (ferric reducing antioxidant power) assay proposed by Benzie and Strain [92] was modified to be performed in 96-well microplates as described in detail in [53]. The FRAP reagent contained 2.5 mL of 10 mM TPTZ (2,4,6-tris(2-pyridyl)-s-triazine, Sigma-Aldrich) solution in 40 mM HCl, 2.5 mL of 20 mM FeCl3 (Sigma-Aldrich) in distilled water and 25 mL of 0.3 M acetate buffer (pH 3.6). Aliquots of 10 µL of the test compound dissolved in DMSO (0.5 mM) were placed in quadruplicate. Absorbance was measured at a wavelength of 593 nm after 60 min incubation at 37 °C. In each case, Trolox was used as a reference compound to obtain the standard curve. The AO activity was calculated with respect to the activity of Trolox and expressed as Trolox equivalents (TE)—the values calculated as the ratio of the concentrations of Trolox and the test compound resulting in the same effect on ferric reducing activity.

[6] = target: T2, equine serum BChE (Equus caballus, UniProt P81908); assay: biochemical; conditions: mean ± SEM, n = 3, read-out: Inhibitory activity against BChE, IC50
T2 construct: human erythrocyte AChE, equine serum BChE, and porcine liver CES were used; purchased Sigma-Aldrich; host or cells: equine serum (tissue-derived)
Source text: as §1, §2

[7] = target: T3, AChE (Homo sapiens, UniProt P22303); assay: Kinetic study of AChE inhibition (Lineweaver-Burk); format: biochemical; conditions: mixed-type inhibition; mean ± SEM
T3 construct: human erythrocyte AChE, equine serum BChE, and porcine liver CES were used; purchased Sigma-Aldrich; host or cells: human erythrocytes (tissue-derived)
Description: (§3) We assessed the mechanisms of AChE and BChE inhibition by performing a thorough analysis of enzyme kinetics. After a 5 min incubation at 25 °C (for temperature equilibration) with three increasing concentrations of inhibitor and six decreasing substrate concentrations, the residual enzyme activity was measured as described above for enzymatic assays.

[8] = target: T4, eqBChE (Equus caballus, UniProt P81908); assay: Kinetic study of BChE inhibition (Lineweaver-Burk); format: biochemical; conditions: mixed-type inhibition, mean ± SEM
T4 construct: human erythrocyte AChE, equine serum BChE, and porcine liver CES were used; purchased Sigma-Aldrich; host or cells: equine serum (tissue-derived)
Description: Similar results were obtained for other tested compounds (Figures S61 and S62). The obtained values of inhibition constants (Ki = competitive component and αKi = non-competitive component) are shown in Table 2.
as §3

[9] = target: T5, human erythrocyte AChE (Homo sapiens, UniProt P22303); assay: biochemical; conditions: mean ± SEM, n = 3, read-out: Inhibitory activity against AChE, IC50
T5 construct: human erythrocyte AChE, equine serum BChE, and porcine liver CES were used; purchased Sigma-Aldrich; host or cells: human erythrocytes (tissue-derived)
Source text: as §1, §2

[10] = Aβ42 50 µM, compound 100 µM, 24 h, 37 °C, thioflavin T

T1 sequence (O42275 24-633): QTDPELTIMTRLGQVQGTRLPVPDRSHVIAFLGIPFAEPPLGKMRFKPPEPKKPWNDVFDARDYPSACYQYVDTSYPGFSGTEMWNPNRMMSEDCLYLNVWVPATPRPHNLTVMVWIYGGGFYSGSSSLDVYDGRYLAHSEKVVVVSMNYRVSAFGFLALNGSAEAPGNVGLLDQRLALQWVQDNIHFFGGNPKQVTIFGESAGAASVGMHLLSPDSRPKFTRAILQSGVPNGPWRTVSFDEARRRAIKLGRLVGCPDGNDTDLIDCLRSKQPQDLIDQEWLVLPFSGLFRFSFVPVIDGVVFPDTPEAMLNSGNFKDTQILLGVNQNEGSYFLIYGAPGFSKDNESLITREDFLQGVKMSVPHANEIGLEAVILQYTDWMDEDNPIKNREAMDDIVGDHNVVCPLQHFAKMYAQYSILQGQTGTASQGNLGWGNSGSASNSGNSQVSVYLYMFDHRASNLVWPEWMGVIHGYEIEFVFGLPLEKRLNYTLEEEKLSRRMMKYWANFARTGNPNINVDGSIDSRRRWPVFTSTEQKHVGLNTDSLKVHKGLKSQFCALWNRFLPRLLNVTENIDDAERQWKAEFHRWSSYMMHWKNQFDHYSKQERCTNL
T2 sequence (P81908 whole entry): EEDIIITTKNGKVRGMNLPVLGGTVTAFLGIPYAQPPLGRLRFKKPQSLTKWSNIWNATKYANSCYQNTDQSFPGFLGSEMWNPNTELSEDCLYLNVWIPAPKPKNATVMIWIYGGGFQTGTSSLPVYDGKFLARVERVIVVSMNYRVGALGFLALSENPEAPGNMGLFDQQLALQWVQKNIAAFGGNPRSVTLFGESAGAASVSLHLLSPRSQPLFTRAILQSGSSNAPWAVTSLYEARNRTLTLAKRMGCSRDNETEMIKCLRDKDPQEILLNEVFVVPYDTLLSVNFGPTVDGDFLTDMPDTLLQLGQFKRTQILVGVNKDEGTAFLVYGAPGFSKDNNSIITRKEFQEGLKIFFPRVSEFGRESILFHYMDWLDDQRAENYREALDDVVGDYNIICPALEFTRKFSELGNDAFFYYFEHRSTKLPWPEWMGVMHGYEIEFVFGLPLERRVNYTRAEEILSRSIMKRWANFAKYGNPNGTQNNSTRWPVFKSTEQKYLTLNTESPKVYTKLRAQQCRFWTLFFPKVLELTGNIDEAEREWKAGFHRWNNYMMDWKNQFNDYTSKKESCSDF
T5 sequence (P22303 32-617 isoform P22303-2 limits assumed): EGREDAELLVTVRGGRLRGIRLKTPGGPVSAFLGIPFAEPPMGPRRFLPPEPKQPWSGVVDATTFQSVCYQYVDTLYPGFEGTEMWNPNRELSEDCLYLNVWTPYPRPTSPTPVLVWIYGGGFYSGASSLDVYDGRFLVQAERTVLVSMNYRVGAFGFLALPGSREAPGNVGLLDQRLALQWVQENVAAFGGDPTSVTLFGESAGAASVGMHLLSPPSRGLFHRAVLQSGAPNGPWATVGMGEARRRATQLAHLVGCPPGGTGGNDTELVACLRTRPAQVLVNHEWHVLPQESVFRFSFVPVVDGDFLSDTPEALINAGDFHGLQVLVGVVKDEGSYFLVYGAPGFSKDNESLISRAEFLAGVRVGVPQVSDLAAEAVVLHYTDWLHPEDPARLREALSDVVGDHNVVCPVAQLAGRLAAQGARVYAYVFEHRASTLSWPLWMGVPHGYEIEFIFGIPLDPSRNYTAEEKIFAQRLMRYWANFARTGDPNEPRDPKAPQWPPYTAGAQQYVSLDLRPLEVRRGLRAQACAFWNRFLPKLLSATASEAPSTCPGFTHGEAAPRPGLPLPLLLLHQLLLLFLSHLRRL
Sequence of β-amyloid (1–42) (Aβ42) (P05067 672-713 limits assumed): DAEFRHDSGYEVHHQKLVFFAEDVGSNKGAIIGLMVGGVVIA
T4 sequence (P81908 whole entry): as the sequence (P81908 whole entry) above
T3 sequence (P22303 32-617 isoform P22303-2 limits assumed): as the sequence (P22303 32-617 isoform P22303-2 limits assumed) above

Row | SMILES | Inhibitory activity against CES, inhibition at 20 µM [1] [%] | Propidium Displacement from EeAChE PAS [2] [%] | inhibition at 100 µM [3, 10] [%] | IC50 [4] [µM] | ABTS^•+ Scavenging Activity, TEAC [4] | FRAP, TE [5] | IC50 [6] [µM] | αKi (non-competitive inhibition constant), AChE [7] [µM] | αKi (non-competitive inhibition constant), eqBChE [8] [µM] | Ki ([8]; read-out: Ki (competitive inhibition constant), eqBChE) [µM] | IC50 [9] [µM] | Inhibition of Aβ42 Self-Aggregation [3, 10] [%] | inhibition at 100 µM [3] [%]
1 | O=C(NCCCCNc1c2c(nc3ccccc13)CCCC2)c1ccccc1O [5a] | 1.6 ± 1.1 | 11.8 ± 0.9 | 20.7 ± 1.6 | 25.3 ± 1.1 | 0.73 ± 0.04 | 0.02 | – | – | – | – | – | – | –
2 | O=C(NCCCCCCCCNc1c2c(nc3ccccc13)CCCC2)c1ccccc1O [5c] | 29.5 ± 2.5 | 14.2 ± 1.1 | 71.9 ± 5.7 | 25.5 ± 1.1 | 0.75 ± 0.04 | – | 0.0104 ± 0.0013 | 0.263 ± 0.018 | 0.0171 ± 0.0013 | 0.0106 ± 0.0007 | – | – | –
3 | COc1ccccc1C(=O)NCCCCNc1c2c(nc3ccccc13)CCCC2 [6a] | 3.4 ± 0.7 | 10.2 ± 0.9 | 12.3 ± 0.9 | – | 0.02 (n.a.) | 0.03 | 0.0105 ± 0.0007 | – | – | – | 1.92 ± 0.13 | – | –
4 | O=C(NCCCCNc1c2c(nc3ccccc13)CCCC2)c1cc(F)c(F)cc1O [7a, 4,5-Difluoro-2-hydroxy-N-[4-(1,2,3,4-tetrahydroacridin-9-ylamino)butyl]benzamide] | 4.3 ± 0.9 | 10.4 ± 0.9 | 17.4 ± 1.2 | > 200 | 0.06 and 0.060 ± 0.002 | – | 0.0291 ± 0.0022 | – | – | – | 0.5 ± 0.03 | – | –
5 | COc1cc(F)c(F)cc1C(=O)NCCCCNc1c2c(nc3ccccc13)CCCC2 [8a, 4,5-Difluoro-2-methoxy-N-[4-(1,2,3,4-tetrahydroacridin-9-ylamino)butyl]benzamide] | 6.5 ± 1.1 | 13.2 ± 1.0 | 10.4 ± 0.9 | – | – | 0.03 | 0.0547 ± 0.0034 | – | – | – | 1.22 ± 0.07 | – | –
6 | Oc1ccccc1C=NCCCCNc1c2c(nc3ccccc13)CCCC2 [10a, 2-[4-(1,2,3,4-Tetrahydroacridin-9-ylamino)butyliminomethyl]phenol] | 20.8 ± 0.4 | 18.6 ± 1.6 | 57.9 ± 4.6 | 35.8 ± 1.9 | 0.42 ± 0.03 | 0.02 | 0.127 ± 0.006 | – | – | – | 0.743 ± 0.044 | – | –
7 | O=C1O[C@H]([C@@H](O)CO)C(O)=C1O [Ascorbic acid, reference compound] | – | – | – | 22.6 ± 1.2 | 0.96 ± 0.03 | 1.28 ± 0.11 | – | – | – | – | – | – | –
8 | CC[N+](C)(CC)CCC[n+]1c(-c2ccccc2)c2cc(N)ccc2c2ccc(N)cc21.[I-].[I-] [Propidium iodide, reference compound] | – | – | – | – | – | – | – | – | – | – | – | 90.7 ± 7.1 | –
9 | O=C(O)c1ccccc1O [Salicylic acid, reference compound] | 8.9 ± 0.6 | – | – | – | no antiradical activity | 0.02 | 47.6 ± 3.2 | – | – | – | – | – | 6.5 ± 1.2
10 | Cc1c(C)c2c(c(C)c1O)CCC(C)(C(=O)O)O2 (stereo not shown) [Trolox, 6-hydroxy-2,5,7,8-tetramethylchroman-2-carboxylic acid, reference compound] | – | – | – | 19.8 ± 0.8 | 1.00 | 1.00 | – | – | – | – | – | – | –

Source: article PMC9916969 (International Journal of Molecular Sciences, 2023)
